Results on 8 molecules are retold here after patent US20190225650A1, “PEPTIDOMIMETIC MACROCYCLES AND USE THEREOF IN REGULATING HIF1ALPHA” (AILERON THERAPEUTICS, INC., priority 2013, published 2019).

By IC50 is commonly meant the concentration that gives 50% inhibition. As a reminder, the EC50 is the concentration needed to bring the measured effect to its halfway point.

Test [1] concerns the target T1, flag-tagged HIF1α (AA 786-826) / His6-tagged p300 (AA 323-423) complex (Homo sapiens, UniProt Q09472).
T1 construct: His6-tagged p300 (AA 323-423); made in house; host or cells: E. coli (pETDuet vector)
Put plainly: HIF1α p300 displacement assay (TR FRET, +CHAPS). In kind it is binding. To be noted: read-out: IC50 (nM) (HIF1α_p300 Displacement + CHAPS). Summed up: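 In this TR-FRET displacement format, peptides compete HIF1α C-terminal transactivation domain off p300-CH. They were preincubated 1 h at room temperature with 300 nM complex in HEPES pH 7.4/NaCl buffer with 7.5 mM CHAPS and 1 mM DTT. Anti-His-D2 (4 nM) and anti-Flag-K (0.5 μM) followed for 2 h, and a one-site fit of the fluorescence ratio gave IC50.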

The subject of test [2] is HRE-bla ME-180 cells. Nature of the test: Cell proliferation assay (viability, MTT, 1% FBS). The test is classed as cell-based, human. In a few lines:
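Viable cell number was measured with the CellTiter 96 (MTT) kit after compounds were applied for a 16 h normoxic (21% O2) pretreatment, followed by further normoxic or hypoxic (1% O2) culture. Cells: 2×10^4 ME-180 per well, Opti-MEM + 1% FBS, 0.5% DMSO vehicle.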

The subject of test [3] is HRE-bla ME-180 cells. Put plainly: Reporter gene assay (HRE-bla ME-180 HIF reporter, GeneBLAzer). In kind it is cell-based, human. The note with it: for EC50: 24 hour normoxia. In a few lines: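 A FRET β-lactamase readout of HIF transcription was used. After compound treatment in 0.3% DMSO/media under normoxic conditions, 20 μl of 6× LiveBLAzer-FRET B/G (CCF4-AM) substrate was added. Plates sat 3 hr at room temperature in the dark and were read at 409 Ex/460Em and 409Ex/530Em on a Synergy 2. Inhibition was compared against DMSO vehicle controls, with chetomin as positive control.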
In general terms: A reporter such as luciferase makes a cellular process visible.

Bridge positions count the residues as written; N and C are the ends. Square brackets hold non-standard residues; d marks the D form. Peptide text beside a SMILES is read from it. R8 = C=CCCCCCC[C@@](C)(N)C(=O)O; S5 = C=CCCC[C@](C)(N)C(=O)O; Nle = CCCC[C@H](N)C(=O)O

Regarding `CCCC[C@@H]1NC(=O)[C@H](CC(C)C)NC(=O)[C@H](C(C)C)NC(=O)[C@@](C)(NC(=O)[C@H](CCC(=O)O)NC(=O)[C@H](CC(=O)O)NC(=O)[C@@H](NC(=O)[C@H](Cc2ccccc2)NC(C)=O)[C@@H](C)CC)CCCC=CCCC[C@@](C)(C(=O)N[C@@H](CC(C)C)C(=O)N[C@H](C(=O)N[C@H](C(=O)N[C@@H](CCC(=O)O)C(=O)N[C@@H](CCSC)C(=O)N[C@@H](C)C(=O)N[C@@H](CC(C)C)C(=O)N[C@@H](CC(=O)O)C(=O)N[C@@H](CCCNC(=N)N)C(=O)N[C@H](C(N)=O)[C@@H](C)CC)[C@@H](C)CC)C(C)C)NC1=O` [SP-118] (Ac-FIDE[S5]VL[Nle][S5]LVIEMALDRI-NH2; staple 5-9), the half-maximal inhibitory concentration (IC50) in test [1] is no more than 200 nM. Further, the “Viability 1% FBS AVG (MTT V3-24 hr Normoxia) (μM)” value (shortened to “Viability 1% FBS AVG”) in the test with HRE-bla ME-180 cells [2] was “++++ (≥30: ++++)”. Also, in the test with HRE-bla ME-180 cells [3], the “18 h Avg % max inhibition at top conc (HIF Rptr-24 hrs normoxia) (μM)” value (from here on “18 h Avg % max inhibition at top conc”) was “+++ (≤25 but <50: +++)” and the EC50 fell in the range of 15 to 30 µM.

As for `CCCC[C@H](NC(=O)[C@H](CC(C)C)NC(=O)[C@@H](NC(=O)[C@H](CCC(=O)O)NC(=O)[C@H](CCC(=O)O)NC(=O)[C@H](CC(=O)O)NC(=O)[C@@H](NC(=O)[C@H](CC(N)=O)NC(=O)[C@@H](NC(=O)[C@]1(C)CCCC=CCCC[C@](C)(NC(=O)[C@H](CC(C)C)NC(=O)[C@H](CC(C)C)NC(=O)[C@H](CCC(=O)O)NC(=O)[C@H](CCC(=O)O)NC(=O)CNC(=O)[C@H](CCC(N)=O)NC(=O)[C@H](CC(C)C)NC(=O)[C@H](CC(C)C)NC(C)=O)C(=O)N[C@@H](C)C(=O)N[C@@H](CC(C)C)C(=O)N[C@@H](CC(=O)O)C(=O)N1)C(C)C)[C@@H](C)CC)C(C)C)C(=O)N[C@@]1(C)CCCC=CCCC[C@@](C)(C(=O)N[C@@H](CCCC)C(=O)NCC(N)=O)NC(=O)[C@H]([C@@H](C)CC)NC(=O)[C@H](C(C)C)NC(=O)[C@H](CC(C)C)NC1=O` [SP-340] (Ac-LLQGEELL[S5]ALD[S5]VNIDEEVL[Nle][S5]LVI[S5][Nle]G-NH2; staple 9-13, 23-27), in test [1], the IC50 is greater than 700 nM. The “Viability 1% FBS AVG” value in the test on HRE-bla ME-180 cells [2] was “++++ (≥30: ++++)”. Further, in the test with HRE-bla ME-180 cells [3], the “18 h Avg % max inhibition at top conc” value was “++ (≤10 but <25: ++)” and the EC50 was greater than 30 µM.

With `CCCC[C@H](NC(=O)[C@H](CCC(=O)O)NC(=O)[C@]1(C)CCCC=CCCCCCC[C@@](C)(NC(=O)[C@H](CCC(=O)O)NC(=O)[C@H](C)NC(=O)[C@@H](NC(=O)[C@H](Cc2ccccc2)NC(C)=O)[C@@H](C)CC)C(=O)N[C@@H](C(C)C)C(=O)N[C@@H](CC(C)C)C(=O)N[C@@H](CCCC)C(=O)N[C@@H](CO)C(=O)N[C@@H](CC(C)C)C(=O)N[C@@H](C(C)C)C(=O)N1)C(=O)N[C@@H](C)C(=O)N[C@@H](CC(C)C)C(N)=O` [SP-197] (Ac-FIAE[R8]VL[Nle]SLV[S5]E[Nle]AL-NH2; staple 5-12), the IC50 in test [1] was greater than 700 nM. In the test with HRE-bla ME-180 cells [2], the “Viability 1% FBS AVG” value was “++++ (≥30: ++++)”. Further, in the test with HRE-bla ME-180 cells [3], the “18 h Avg % max inhibition at top conc” value is on record as “++++ (≥50: ++++)” and the EC50 was in the range of 5 to 15 µM.

As for `CCCC[C@H](NC(=O)[C@H](CC(C)C)NC(=O)[C@@H](NC(=O)[C@H](CCC(=O)O)NC(=O)[C@H](CCC(=O)O)NC(=O)[C@H](CC(=O)O)NC(=O)[C@@H](NC(=O)[C@H](CC(N)=O)NC(=O)[C@@H](NC(=O)[C@]1(C)CCCC=CCCCCCC[C@@](C)(NC(=O)[C@H](CCC(=O)O)NC(=O)CNC(=O)[C@H](CCC(N)=O)NC(=O)[C@H](CC(C)C)NC(=O)[C@H](CC(C)C)NC(C)=O)C(=O)N[C@@H](CC(C)C)C(=O)N[C@@H](CC(C)C)C(=O)N[C@@H](CCCNC(=N)N)C(=O)N[C@@H](C)C(=O)N[C@@H](CC(C)C)C(=O)N[C@@H](CC(=O)O)C(=O)N1)C(C)C)[C@@H](C)CC)C(C)C)C(=O)N[C@@]1(C)CCCC=CCCC[C@@](C)(C(=O)N[C@@H](CCCC)C(=O)N[C@@H](C)C(=O)N[C@@H](CC(C)C)C(N)=O)NC(=O)[C@H]([C@@H](C)CC)NC(=O)[C@H](C(C)C)NC(=O)[C@H](CC(C)C)NC1=O` [SP-372] (Ac-LLQGE[R8]LLRALD[S5]VNIDEEVL[Nle][S5]LVI[S5][Nle]AL-NH2; staple 6-13, 23-27), the IC50 in test [1] was in the range of 400 to 700 nM. In the test on HRE-bla ME-180 cells [2], the “Viability 1% FBS AVG” value is recorded as “++++ (≥30: ++++)”. Also, in the test on HRE-bla ME-180 cells [3], the “18 h Avg % max inhibition at top conc” value is on record as “++++ (≥50: ++++)” and the EC50 was greater than 30 µM.

Regarding `CCCC[C@@H]1NC(=O)[C@H](CC(C)C)NC(=O)[C@H](C(C)C)NC(=O)[C@@](C)(NC(=O)[C@H](CCC(=O)O)NC(=O)[C@H](CC(=O)O)NC(=O)[C@@H](NC(=O)[C@H](Cc2ccccc2)NC(C)=O)[C@@H](C)CC)CCCC=CCCCC2(CCCC=CCCC[C@](C)(C(=O)N[C@@H](C)C(=O)N[C@@H](C)C(=O)N[C@@H](CC(C)C)C(N)=O)NC(=O)[C@H]([C@@H](C)CC)NC(=O)[C@H](C(C)C)NC(=O)[C@H](CC(C)C)NC2=O)NC1=O` (some centres unmarked) [SP-211], in test [1], the IC50 is 200 to 400 nM. Also, the “Viability 1% FBS AVG” value with HRE-bla ME-180 cells [2] is “++++ (≥30: ++++)”. Also, in the test with HRE-bla ME-180 cells [3], the “18 h Avg % max inhibition at top conc” value is “+ (<10: +)” and the EC50 was greater than 30 µM.

`CCCC[C@H](NC(=O)[C@H](CCC(=O)O)NC(=O)[C@@H](NC(=O)[C@@H](NC(=O)[C@H](CC(C)C)NC(=O)[C@]1(C)CCCC=CCCC[C@](C)(NC(=O)[C@H](C)NC(=O)[C@H](CC(=O)O)NC(=O)[C@@H](NC(=O)[C@H](Cc2ccccc2)NC(C)=O)[C@@H](C)CC)C(=O)N[C@@H](C(C)C)C(=O)N[C@@H](CC(C)C)C(=O)N[C@@H](CCCC)C(=O)N1)C(C)C)[C@@H](C)CC)C(=O)N[C@@H](C)C(=O)N[C@@H](CC(C)C)C(N)=O` [SP-148] (Ac-FIDA[S5]VL[Nle][S5]LVIE[Nle]AL-NH2; staple 5-9): the IC50 in test [1] is greater than 700 nM. Also, the “Viability 1% FBS AVG” value in the test on HRE-bla ME-180 cells [2] is given as “++++ (≥30: ++++)”. In addition, in the test on HRE-bla ME-180 cells [3], the “18 h Avg % max inhibition at top conc” value was “+++ (≤25 but <50: +++)” and the EC50 is greater than 30 µM.

Regarding `CC[C@H](C)[C@H](NC(=O)[C@H](CCCNC(=N)N)NC(=O)[C@H](CC(N)=O)NC(=O)[C@H](CC(C)C)NC(=O)[C@H](C)NC(=O)[C@H](CCSC)NC(=O)[C@]1(C)CCCC=CCCC[C@](C)(NC(=O)[C@H](CCSC)NC(=O)[C@H](CC(C)C)NC(=O)[C@@H](NC(=O)[C@H](C)NC(=O)[C@H](CCC(N)=O)NC(=O)[C@H](CC(=O)O)NC(=O)[C@@H](NC(=O)[C@H](Cc2ccccc2)NC(C)=O)[C@@H](C)CC)C(C)C)C(=O)N[C@@H](CC(C)C)C(=O)N[C@@H](C(C)C)C(=O)N[C@@H]([C@@H](C)CC)C(=O)N1)C(N)=O` [SP-270] (Ac-FIDQAVLM[S5]LVI[S5]MALNRI-NH2; staple 9-13), in test [1], the IC50 was greater than 700 nM. The “Viability 1% FBS AVG” value in the test with HRE-bla ME-180 cells [2] is reported as “++++ (≥30: ++++)”. In the test on HRE-bla ME-180 cells [3], the “18 h Avg % max inhibition at top conc” value was “++ (≤10 but <25: ++)” and the EC50 was greater than 30 µM.

With `CCCC[C@H](NC(=O)[C@H](CCC(=O)O)NC(=O)[C@@H](NC(=O)[C@@H](NC(=O)[C@H](CC(C)C)NC(=O)[C@]1(C)CCCC=CCCC[C@](C)(NC(=O)[C@H](CCC(=O)O)NC(=O)[C@H](CC(=O)O)NC(=O)[C@@H](NC(=O)[C@H](Cc2ccccc2)NC(C)=O)[C@@H](C)CC)C(=O)N[C@@H]([C@@H](C)O)C(=O)N[C@@H](CC(C)C)C(=O)N[C@@H](CCCC)C(=O)N1)C(C)C)[C@@H](C)CC)C(=O)N[C@@H](C)C(=O)N[C@@H](CC(C)C)C(N)=O` [SP-139] (Ac-FIDE[S5]TL[Nle][S5]LVIE[Nle]AL-NH2; staple 5-9), in test [1], the IC50 is 400 to 700 nM. Moreover, the “Viability 1% FBS AVG” value in the test on HRE-bla ME-180 cells [2] is reported as “++ (≤5 but <15: ++)”. In the test on HRE-bla ME-180 cells [3], the “18 h Avg % max inhibition at top conc” value is “+++ (≤25 but <50: +++)” and the EC50 was greater than 30 µM.
